Measured values published in patent publication US20240307409A1, “ARGININE METHYLTRANSFERASE INHIBITOR AND USE THEREOF” (Cytosinlab Therapeutics Co., Ltd., priority 2021, published 2024).
pIC50: −log10 of the molar value.

How the values were obtained:
Type in all cases: biochemical
PRMT6 = PRMT6 (Homo sapiens, UniProt Q96LA8); test: PRMT panel selectivity test, PRMT6
Procedure: [The procedure below names another target; the source says it served here with some conditions changed.] (§1) This experiment was assayed in a buffer prepared on the same day consisting of 10 mMTirs-HCl (pH=8.0), […] and 1 mM DTT. The compounds were prepared to the highest inhibitor concentration ultimately required in the 100× reaction with 100% DMSO and then transferred to one well of a 384-well Echo plate (Echo-eligible 384-well polypropylene microplates 2.0, transparent, flat-bottomed) and sequentially diluted in the next well with a 3-fold dilution of 100% DMSO, and so on, with a total of 10 concentrations based on Precision. 100% DMSO was added to two empty wells as control well without compound and control well without enzyme in the same 384-well Echo plate. 100 nL of compound was transferred from each well of the 384-well Echo plate to a 384-well assay plate (OptiPlate (384-well, white)) via the Echo 550 liquid processor. For wells with compounds and control well without compound, a mixture containing PRMT1 enzyme (5 uL) was added to the 384-well assay plate. For control well without enzyme, a mixture containing test buffer (5 uL) was added instead. The compounds were allowed to incubate with PRMT3 for 15 minutes at room temperature, and then a mixture containing cold SAM and peptide (5 uL) was added to start the reaction (final volume=10 uL). The final concentrations of the components were as follows: 0.1 nM for PRMT3, 15 uM for SAM, 0.05 uM for peptide, and 1% DMSO. After 60 min of incubation at room temperature, the reaction was terminated by the addition of donor and acceptor magnetic beads (15 uL) with a final concentration of 10 ug/mL diluted with AlphaLISA Epigenetics Buffer. The 384-well assay plate was incubated at room temperature for 60 min and the relative fluorescence units (RFU) were nextly determined using a multi-mode plate reader in Alpha mode (Ex680/Em615).
(§2) Curve fitting: the raw data were copied from Reader and the inhibition values were calculated in Excel by equation (1). […]

PRMT7 = target: T1, PRMT7 (Homo sapiens, UniProt Q9NVM4); test: PRMT panel selectivity test, PRMT7
T1 sequence (Q9NVM4 1-692): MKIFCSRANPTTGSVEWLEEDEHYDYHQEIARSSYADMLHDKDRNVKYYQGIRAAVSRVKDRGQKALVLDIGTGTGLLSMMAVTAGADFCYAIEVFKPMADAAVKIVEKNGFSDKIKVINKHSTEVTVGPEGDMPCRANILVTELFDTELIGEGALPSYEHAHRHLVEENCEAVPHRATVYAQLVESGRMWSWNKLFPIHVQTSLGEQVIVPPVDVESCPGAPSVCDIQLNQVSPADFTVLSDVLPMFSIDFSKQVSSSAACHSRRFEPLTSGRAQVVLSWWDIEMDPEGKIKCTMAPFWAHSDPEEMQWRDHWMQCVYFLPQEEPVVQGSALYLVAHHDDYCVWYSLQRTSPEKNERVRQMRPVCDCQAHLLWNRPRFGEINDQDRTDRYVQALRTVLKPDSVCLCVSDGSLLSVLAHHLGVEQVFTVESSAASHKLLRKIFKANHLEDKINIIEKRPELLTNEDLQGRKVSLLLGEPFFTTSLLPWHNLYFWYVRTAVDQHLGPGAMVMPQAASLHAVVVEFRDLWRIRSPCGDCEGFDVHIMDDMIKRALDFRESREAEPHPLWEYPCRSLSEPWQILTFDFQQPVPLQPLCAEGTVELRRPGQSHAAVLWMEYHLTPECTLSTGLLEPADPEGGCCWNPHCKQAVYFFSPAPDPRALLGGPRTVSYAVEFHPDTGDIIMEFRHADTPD
Procedure: [The procedure below names another target; the source says it served here with some conditions changed.] PRMT1 enzyme activity test were performed in a buffer prepared on the same day 5 consisting of 10 mMTirs-HCl (pH=8.0), 0.01% Tween-20 and 1 mM DTT. The compounds were prepared to the highest inhibitor concentration ultimately required in the 100× reaction with 100% DMSO and then transferred to one well of a 384-well Echo plate (Echo-eligible 384-well polypropylene microplates 2.0, transparent, flat-bottomed) and sequentially diluted in the next well with a 3-fold dilution of 100% DMSO, and so on, with a total of 10 concentrations based on Precision. 100% DMSO was added to two empty wells to serve as control well without compound and control well without enzyme in the same 384-well Echo plate. 250 nL of compound was transferred from each well of the 384-well Echo plate to a 384-well assay plate (384-well polypropylene storage microplate) via the Echo 550 liquid processor. For wells with compounds and control well without compound, a mixture (15 uL) containing PRMT1 enzyme was added to the 384-well assay plate. For control wells without enzyme, the mixture containing the assay buffer (15 uL) was added instead. The compounds were allowed to incubate with PRMT1 for 15 minutes at room temperature, and then a mixture containing ^3H-SAM and peptide (10 uL) was added to start the reaction (final volume=25 uL). […] After 120 min of incubation, the assay was terminated by the addition of non-radiolabeled SAM (5 uL) to a final concentration of 125 uM, which diluted 3H-SAM to a level at which its incorporation into the peptide substrate was no longer detected. […] Plates were read on a microplate counter (MicroBeta2) to measure the amount of ^3H-labeled peptide bound to the surface of the detection plate, measured in counts per minute (cpm).
The raw data were copied from the Reader and the inhibition values were calculated in Excel by Equation (1), Equation (1): Inh %=(CPMmax−CPMcmpd)/(CPMmax−CPMmin)*100, wherein the Max signal was obtained from the enzyme-substrate interaction and the Min signal was obtained from the substrate. […]

PRMT8 = PRMT8 (Homo sapiens, UniProt Q9NR22); test: PRMT panel selectivity test, PRMT8
Chain of PRMT8 (Q9NR22 whole entry): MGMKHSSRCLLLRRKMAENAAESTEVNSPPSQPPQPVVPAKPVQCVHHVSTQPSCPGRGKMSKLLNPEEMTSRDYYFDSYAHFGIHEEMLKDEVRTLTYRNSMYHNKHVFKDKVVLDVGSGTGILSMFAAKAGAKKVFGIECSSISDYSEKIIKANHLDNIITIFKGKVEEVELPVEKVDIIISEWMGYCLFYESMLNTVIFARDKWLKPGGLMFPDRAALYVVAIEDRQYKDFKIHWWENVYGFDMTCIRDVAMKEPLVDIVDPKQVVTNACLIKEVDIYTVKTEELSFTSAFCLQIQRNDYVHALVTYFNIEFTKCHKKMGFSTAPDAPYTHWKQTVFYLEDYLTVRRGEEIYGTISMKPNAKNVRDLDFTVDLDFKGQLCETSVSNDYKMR
Procedure: [The procedure below names another target; the source says it served here with some conditions changed.] as §1, §2

Chain of PRMT6 (Q96LA8 whole entry): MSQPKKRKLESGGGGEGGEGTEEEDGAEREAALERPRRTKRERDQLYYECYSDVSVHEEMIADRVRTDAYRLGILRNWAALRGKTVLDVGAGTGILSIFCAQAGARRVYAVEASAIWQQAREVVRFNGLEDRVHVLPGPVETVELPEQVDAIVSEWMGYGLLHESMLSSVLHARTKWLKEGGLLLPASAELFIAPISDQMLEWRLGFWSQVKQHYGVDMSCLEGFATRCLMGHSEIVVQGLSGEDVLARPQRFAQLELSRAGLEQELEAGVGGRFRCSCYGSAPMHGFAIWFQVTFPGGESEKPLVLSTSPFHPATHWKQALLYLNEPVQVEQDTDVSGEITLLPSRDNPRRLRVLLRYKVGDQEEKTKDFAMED

A pIC50 (PRMT6) of over 7.30, a pIC50 (PRMT7) of at most 5.00 and a pIC50 (PRMT8) of over 7.30 were found for `CNCCN(C)Cc1ccccc1C1CCN(c2ccccc2)CC1` [P023] in this work.

A pIC50 (PRMT6) of over 7.30, a pIC50 (PRMT7) of at most 5.00 and a pIC50 (PRMT8) of over 7.30 were found for `CNCCN(C)Cc1ncccc1N1CCc2ccccc2CC1` [P118] in this work.

A pIC50 (PRMT6) of over 7.30, a pIC50 (PRMT7) of at most 5.00 and a pIC50 (PRMT8) of over 7.30 were found for `CCOCC1(COCC)CCC(c2cccnc2CN(C)CCNC)CC1` [P207] in this work.
